Consider two compounds from patent US11149248B2, “Bioreactor system” (KIYATEC INC., priority 2013, dated 2021).

The test system of experiment [1] is Human mammary epithelial cells (hMEC). Put plainly: LDH release cytotoxicity assay in 2D, 3D static and 3D perfusion culture. Type of experiment: cell-based. The settings on record: 2% triton 2 hours prior to analysis, positive control. The method, then: (§1) The experiment was performed in a single chamber culture system (one chamber of a 3DKUBE in an “independent chamber” configuration) or using wells in a 12-well plate. […] The inlet port was connected to an opening in a first side of the 3DKUBE cell module and the outlet port connected to an opening in a second side of the cell module. The chamber featured an imaging widow enabling non-lytic analysis inside the chamber through various spectrophotometric and other techniques.
(§2) Human mammary epithelial cells (hMEC) were utilized. For 2D experiments hMEC were cultured on the bottom of 12-well plates as per typical cell culture practices (referred to as “2D” experiments). For 3D static and perfusion experiments hMEC were suspended in a Matrigel™:Collagen (rat tail collagen Type I) mixture which was added to silk fibroin scaffolds (H 2.5 mm×W 5 mm) contained in 12-well plates (referred to as “3D static”) or 3DKUBEs (referred to as “3D perfusion”). […]
(§3) The secretion of lactate dehydrogenase (LDH) is a non-lytic assay of cytotoxicity. […] The cells were cultured in these 2D, 3D static, or 3D perfusion configurations over 7 days in media alone or in media with increasing concentrations of cisplatin (a DNA alkylating agent used in chemotherapy) and analyzed via PrestoBlue or LDH release (examples of non-lytic means of assessing cell viability or cytotoxicity). […]

The test system is the same in experiment [2]. The experiment is described as follows: PrestoBlue cell viability analysis in 2D, 3D static and 3D perfusion culture. As to conditions: hMEC cultured over 7 days with increasing concentrations of cisplatin, 3D static, 3D perfusion (FIG. 16). Type of experiment: cell-based. The method, then: as §1, §2, §3

For triton, the “maximal cell lysis (LDH release)” value in experiment [1] (2D and 3D static (12-well plates)) was “reduced maximal cell lysis”. The “increase of LDH release” value in experiment [1] (3D perfusion (3DKUBE)) is recorded as “approximately 2.5 fold”. Take `N.N.[Cl][Pt][Cl]` [cisplatin]: the “cell viability (PrestoBlue analysis)” value in experiment [2] is “decrease in cell viability that is only statistically significant in 3D static and 3D perfusion”.
